In US20260315446A1, “ANTIFUNGAL COMPOUNDS AND USES THEREOF” (priority 2023, published 2026):
Entries after “also recorded” stand apart in the source; their conditions may differ. Where two headings read alike, the source gives them in different places.

What was measured:
[1] = Pharmacokinetics in whole blood; format: in vivo, mouse (CD-1); details: for Cmax / Tmax / AUC / CL/F / half-life: mouse, in vivo, ip, 40 mg/kg, 40 mg/kg i.p. single dose, whole blood; for AUC: read-out: AUC (area under the curve); for CL/F: read-out: CI/F (clearance as Dose/AUCINF) (converted)
Protocol: For the lead compound JH-FK-08, the mechanism of action resulting in antifungal activity was tested for conservation of calcineurin inhibition. To probe the JH-FK-08 mechanism of action, MICs of JH-FK-08 were determined with fungal mutants that lack the drug-binding protein FKBP12 or have mutations in the binding site on calcineurin that prevent FKBP12-FK506 binding and inhibition. […] Taken together, these findings support the hypothesis that JH-FK-08 requires FKBP12 for antifungal activity, and the target of the FKBP12-JH-FK-08 complex is calcineurin. The length of time that drugs are active in vivo is critical information relevant to drug development, and the time frame of drug activity can have a drastic impact on treatment regimen and efficacy. Therefore, the pharmacokinetic profiles of FK506 and JH-FK-08 were investigated. Three male and three female CD1 mice were administered a single dose of JH-FK-08 or FK506 at 40 mg/kg. Whole blood samples were taken over a 24-hour period, and the drug concentration remaining in the blood was determined. Pharmacokinetic parameters were calculated using a non-compartmental approach (see, Gabrielsson J, Weiner D. 2012. Methods Mot Biol Clifton NJ 929:377-389). […] When assessing specific pharmacokinetic measures, sex differences began to emerge.
Male (n=3, avg. 28 g) and female (n=3, avg. 25 g) CD-1 mice were injected intraperitoneally with 40 mg/kg of either JH-FK-08 or FK506. The drug formulation was 10% Kolliphor/10% ethanol/80% PBS given as 10 μL/g body weight (i.e., 200 μL per 20 g mouse). Blood (~30 μL) was collected serially (“tail snip”) at 10, 20, and 45 min and 1.5, 3, 6, 12, and 24 h into vials containing […] of 75 mg/mL K2EDTA in water and immediately frozen until the day of liquid chromatography-tandem-mass spectroscopy (LC/MS/MS) analysis. Blood concentration/time data were utilized to calculate relevant PK parameters using the non-compartmental approach and extravascular administration model within WinNonlin (2.1) software.
In a 0.5-mL polypropylene vial, 10 μL blood and 20 μL of acetonitrile fortified with 100 ng/mL FK520 (internal standard) were vigorously agitated in the FastPrep FP120 apparatus (Thermo-Savant) at speed four for 45 s. After centrifugation for 5 min at 16,000 rpm, 20 μL of supernatant was transferred to a polypropylene autosampler vial. LC/MS/MS (Agilent 1200 series HPLC and Sciex/Applied Biosystems API 5500 QTrap) was utilized to quantify JH-FK-08 and FK506 in mouse blood. Analytical column: Agilent Eclipse Plus (C18, 1.8 μm, 50×4.6 mm), at 40° C. Mobile phase: (A) 0.1% formic acid, 10 mM ammonium acetate, 2% acetonitrile in water, and (B) methanol. Elution gradient: 0-0.1 min 30%-98% B, 0.1-1.5 min 98% B, 1.5-1.6 min 98%-30% B, and 1.6-2.1 min 30% B. Run time: 5 min. Injection volume: 10 μL. Mass spectrometer parameters (voltages, gas flow, and temperature) were optimized by infusion of 100 ng/mL of analytes in the mobile phase at 10 μL/min using the Analyst 1.6.2 software tuning module. The MS/MS (m/z) transitions used for quantification were 864.4/846.5 (JH-FK-08), 821.4/768.5 (FK506), and 809.4/756.5 (FK520, internal standard). A set of calibrator samples in drug-free blood was prepared by adding appropriate amounts of pure analyte (JH-FK-08 or FK506) in the […] range. The calibration samples were analyzed alongside the experimental samples. The accuracy acceptance criterion was 85% for each but the lowest level (2.43 ng/mL, 80%, LLOQ). Analyst 1.6.2 software was used for data acquisition, integration of the chromatograms, calibration curve calculation, and quantification of the study samples.

[2] = system: C. neoformans growth versus IL-2 in murine T cells; experiment: Therapeutic index score (immunosuppressive fold change to antifungal fold change relative to FK506); set-up: species or system Cryptococcus neoformans; mouse; details: for Therapeutic Index Score: FK506 = 1.0
Procedure, shortened: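 TIscore = ratio of immunosuppressive fold change (IL-2, murine T cells) to antifungal fold change (C. neoformans), both relative to FK506; values >1.0 denote greater fungal specificity. Derived from in vitro fungal versus mammalian calcineurin inhibition data.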

[3] = females, read-out: t1/2 (3-12 h) (half-life) (converted)
[4] = females, read-out: t1/2 (12-24 h) (half-life) (converted)
[5] = males, read-out: t1/2 (3-12 h) (half-life) (converted)
[6] = males, read-out: t1/2 (12-24 h) (half-life) (converted)

Structure (SMILES)	Cmax ([1]; females) [ng/mL]	Tmax ([1]; females) [h]	AUC ([1]; females) [ng·h/mL]	CL/F ([1]; females) [mL/min/kg]	half-life [1, 3] [h]	half-life [1, 4] [h]	Cmax ([1]; males) [ng/mL]	Tmax ([1]; males) [h]	AUC ([1]; males) [ng·h/mL]	CL/F ([1]; males) [mL/min/kg]	half-life [1, 5] [h]	half-life [1, 6] [h]	Therapeutic index ([2]; Example 3, C. neoformans H99, FK506 = 1.0)	Therapeutic Index Score ([2]; Table 12, Example 4)	Therapeutic Index Score ([2]; Table 13, Example 4)	therapeutic index score (TIscore) ([2]; Example 1, C. neoformans MIC and IL-2 IC50, FK506 = 1.0)	whole blood drug concentration over time versus FK506 ([1]; 40 mg/kg single dose)
C=CCC1C=C(C)CC(C)CC(OC)C2OC(O)(C(=O)C(=O)N3CCCCC3C(=O)OC(C(C)=CC3CCC(O)C(OC)C3)C(C)C(O)CC1=O)C(C)CC2OC (centres unmarked) [FK506, reference compound]	5960	1.11	27100	25.9	1.35	3.59	4510	0.75	15200	49.4	1.48	2.46	1.0	1.0	1.0		
C=CC[C@@H]1/C=C(\C)C[C@H](C)C[C@H](OC)[C@H]2O[C@@](O)(C(=O)C(=O)N3CCCC[C@H]3C(=O)O[C@H](/C(C)=C/[C@@H]3CC[C@@H](O)[C@H](OC)C3)[C@H](C)[C@@H](O)C/C1=N/NC(=O)CC)[C@H](C)C[C@@H]2OC [JH-FK-02]																9.7	
CC[C@@H]1/C=C(\C)C[C@H](C)C[C@H](OC)[C@H]2O[C@@](O)(C(=O)C(=O)N3CCCC[C@H]3C(=O)O[C@H](/C(C)=C/C3CC[C@@H](O)[C@H](OC)C3)[C@H](C)[C@@H](O)C/C1=N/NC(=O)OC)[C@H](C)C[C@@H]2OC (some centres unmarked) [JH-FK-08]	7500	2.5	31400	21.5	1.14	1.88	4070	1.25	15600	46.4	1.29	2.26					No significant differences across groups were observed in whole blood samples of drug concentration over time; also recorded: no statistically significant difference between groups
